According to a compilation of properties of binary mixtures (doi:10.1007/s10973-018-7427-0):

Test: xn = mol fraction of the nth substance listed
Details: 100 kPa

CCCC[n+]1ccn(C)c1.F[P-](F)(F)(F)(F)F + C=CN1CCCC1=O
x1 = 1
Details | speed of sound [m/s]
298.15 K | 1443.8
303.15 K | 1431.7
308.15 K | 1419.8
313.15 K | 1408.2
318.15 K | 1396.8
323.15 K | 1385.6

C=CN1CCCC1=O + CCCC[n+]1ccn(C)c1.F[P-](F)(F)(F)(F)F
speed of sound [m/s]
Details | x2 = 0 | x2 = 0.1011 | x2 = 0.2059 | x2 = 0.3019 | x2 = 0.3937 | x2 = 0.5023 | x2 = 0.584 | x2 = 0.6946 | x2 = 0.7788 | x2 = 0.8707
298.15 K | 1521.5 | – | 1506 | 1496.4 | 1487.8 | 1477.6 | 1470.5 | 1461.5 | 1455.7 | 1449.9
303.15 K | – | 1498.9 | 1490.1 | – | 1473.5 | 1463.9 | 1457.4 | 1449.1 | 1443.4 | 1437.9
308.15 K | 1483.7 | 1481.8 | – | – | 1459.2 | 1450.2 | 1444.3 | – | 1431.1 | 1425.8
313.15 K | 1465 | 1464.7 | 1458.3 | – | 1444.9 | – | 1431.2 | – | 1419 | 1414
318.15 K | 1446.5 | – | – | 1436.6 | 1430.9 | 1423.4 | 1418.4 | 1411.6 | 1407 | 1402.3
323.15 K | – | 1431.1 | – | – | 1416.9 | 1410.2 | 1405.7 | 1399.4 | 1395.1 | 1390.8
